Test results reported in paper PMC8462099 (Molecular cell, 2021).

What was measured:
AMPKγ1 [1] = target: T1, AMPKγ1 (Homo sapiens, UniProt P54619); test: [3H]AMP binding to GST fusion protein
AMPKγ1 [2] = target: T1, AMPKγ1; test: [3H]inositol saturation binding

T1 sequence (P54619 whole entry, the tested form may be a part): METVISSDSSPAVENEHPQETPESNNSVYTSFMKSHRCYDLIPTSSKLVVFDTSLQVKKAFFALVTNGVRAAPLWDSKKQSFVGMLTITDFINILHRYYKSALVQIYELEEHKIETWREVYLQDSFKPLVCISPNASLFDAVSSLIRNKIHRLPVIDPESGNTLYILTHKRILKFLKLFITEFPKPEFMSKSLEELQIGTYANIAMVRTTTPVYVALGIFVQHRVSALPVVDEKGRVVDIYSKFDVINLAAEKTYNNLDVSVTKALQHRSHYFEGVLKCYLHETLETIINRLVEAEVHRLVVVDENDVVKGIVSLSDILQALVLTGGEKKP

IC50 (AMPKγ1 [1])	Kd (AMPKγ1 [2])	SMILES
1900 nM	–	Nc1ncnc2c1ncn2[C@@H]1O[C@H](COP(=O)(O)O)[C@@H](O)[C@H]1O [AMP]
–	98.2 pmol	O[C@H]1[C@H](O)[C@@H](O)[C@H](O)[C@@H](O)[C@H]1O [Ins, inositol]
